# Article PMC11249646, “Small-Molecule Disruptors of the Interaction between Calcium- and Integrin-Binding Protein 1 and Integrin αIIbβ3 as Novel Antiplatelet Agents” (ACS Pharmacology & Translational Science, 2024)
# Target: T1, GST-CIB1 : F-scrambled peptide (Homo sapiens, UniProt Q99828)
# T1 construct: made in house; host or cells: BL-21 plus RIL cells (E. coli)
# T1 sequence (Q99828 1-191): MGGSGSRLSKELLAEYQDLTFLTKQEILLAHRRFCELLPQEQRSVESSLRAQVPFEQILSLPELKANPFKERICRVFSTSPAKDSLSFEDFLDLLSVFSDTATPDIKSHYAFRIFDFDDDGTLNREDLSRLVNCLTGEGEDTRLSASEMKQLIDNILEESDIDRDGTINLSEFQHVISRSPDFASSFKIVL
# Test: FP scrambled-peptide counter screen, 384-well format
# Assay type: binding
# Settings: F-scrambled peptide
row,384-well COUNTERSCREEN Efficacy (%),Compound
1,38,Cc1cc(F)ccc1S(=O)(=O)Nc1cnccc1C(=O)Nc1nc(-c2ccccc2)cs1 [NCGC00345106-03]
2,10,O=C(O)C1=NC(C(=O)O)CC(/C=C/N2c3cc(O)c(OC4OC(CO)C(O)C(O)C4O)cc3CC2C(=O)O)=C1 (centres unmarked) [NCGC00346734-01]

row,Compound,384-well COUNTERSCREEN Efficacy (%)
1,O=C(Nc1nc(-c2ccccc2)cs1)c1ccncc1NS(=O)(=O)c1ccc2ccccc2c1.O=C(O)C(F)(F)F [NCGC00345031-01],81

# Same assay, conditions: F-scrambled peptide; *: Curve in opposite direction
row,384-well COUNTERSCREEN Confirm?,Compound
1,YES,Cc1cc(F)ccc1S(=O)(=O)Nc1cnccc1C(=O)Nc1nc(-c2ccccc2)cs1 [NCGC00345106-03]
2,YES,O=C(O)C1=NC(C(=O)O)CC(/C=C/N2c3cc(O)c(OC4OC(CO)C(O)C(O)C4O)cc3CC2C(=O)O)=C1 (centres unmarked) [NCGC00346734-01]

row,Compound,384-well COUNTERSCREEN Confirm?
1,O=C(Nc1nc(-c2ccccc2)cs1)c1ccncc1NS(=O)(=O)c1ccc2ccccc2c1.O=C(O)C(F)(F)F [NCGC00345031-01],YES*

# Same assay, conditions: F-scrambled peptide; read-out: 384-well COUNTERSCREEN IC50
row,IC50 [µM],Compound
1,> 120,Cc1cc(F)ccc1S(=O)(=O)Nc1cnccc1C(=O)Nc1nc(-c2ccccc2)cs1 [NCGC00345106-03]
2,> 120,O=C(O)C1=NC(C(=O)O)CC(/C=C/N2c3cc(O)c(OC4OC(CO)C(O)C(O)C4O)cc3CC2C(=O)O)=C1 (centres unmarked) [NCGC00346734-01]

row,Compound,IC50 [µM]
1,O=C(Nc1nc(-c2ccccc2)cs1)c1ccncc1NS(=O)(=O)c1ccc2ccccc2c1.O=C(O)C(F)(F)F [NCGC00345031-01],28.2

# Target: T2, CIB1 and αIIb interaction (GST-CIB1 : F-αIIb peptide) (Homo sapiens, UniProt Q99828)
# T2 construct: made in house; host or cells: BL-21 plus RIL cells (E. coli)
# T2 sequence (Q99828 1-191): T1 sequence (Q99828 1-191)
# Test: FP assay, 384-well format (screen)
# Assay type: binding
# Design: 384-well SCREEN Efficacy (%): concentration or dose not given beside the values
# Settings: F-αIIb peptide
row,384-well SCREEN Efficacy (%),Compound
1,46,Cc1cc(F)ccc1S(=O)(=O)Nc1cnccc1C(=O)Nc1nc(-c2ccccc2)cs1 [NCGC00345106-03]
2,43,O=C(O)C1=NC(C(=O)O)CC(/C=C/N2c3cc(O)c(OC4OC(CO)C(O)C(O)C4O)cc3CC2C(=O)O)=C1 (centres unmarked) [NCGC00346734-01]

row,Compound,384-well SCREEN Efficacy (%)
1,O=C(Nc1nc(-c2ccccc2)cs1)c1ccncc1NS(=O)(=O)c1ccc2ccccc2c1.O=C(O)C(F)(F)F [NCGC00345031-01],47

# Same assay, conditions: F-αIIb peptide; YES/NO
row,384-well SCREEN Confirm?,Compound
1,YES,Cc1cc(F)ccc1S(=O)(=O)Nc1cnccc1C(=O)Nc1nc(-c2ccccc2)cs1 [NCGC00345106-03]
2,YES,O=C(O)C1=NC(C(=O)O)CC(/C=C/N2c3cc(O)c(OC4OC(CO)C(O)C(O)C4O)cc3CC2C(=O)O)=C1 (centres unmarked) [NCGC00346734-01]

row,Compound,384-well SCREEN Confirm?
1,O=C(Nc1nc(-c2ccccc2)cs1)c1ccncc1NS(=O)(=O)c1ccc2ccccc2c1.O=C(O)C(F)(F)F [NCGC00345031-01],YES

# Same assay, conditions: F-αIIb peptide; read-out: 384-well SCREEN IC50
row,IC50 [µM],Compound
1,28.2,Cc1cc(F)ccc1S(=O)(=O)Nc1cnccc1C(=O)Nc1nc(-c2ccccc2)cs1 [NCGC00345106-03]
2,39.8,O=C(O)C1=NC(C(=O)O)CC(/C=C/N2c3cc(O)c(OC4OC(CO)C(O)C(O)C4O)cc3CC2C(=O)O)=C1 (centres unmarked) [NCGC00346734-01]

# Target: T3, CIB1 and αIIb interaction (CIB1-GST : F-αIIb peptide) (Homo sapiens, UniProt Q99828)
# T3 construct: made in house; host or cells: BL-21 plus RIL cells (E. coli)
# T3 sequence (Q99828 1-191): T1 sequence (Q99828 1-191)
# Test: FP assay, 1536-well qHTS format (primary and confirmatory screen)
# Assay type: binding
# Settings: not given
row,Compound,CONFIRMATORY SCREEN Efficacy (%)
1,O=C(Nc1nc(-c2ccccc2)cs1)c1ccncc1NS(=O)(=O)c1ccc2ccccc2c1.O=C(O)C(F)(F)F [NCGC00345031-01],-84

# Same assay, conditions: confirmatory screen, YES/NO call
row,CONFIRMATORY SCREEN Confirm?,Compound
1,YES,Cc1cc(F)ccc1S(=O)(=O)Nc1cnccc1C(=O)Nc1nc(-c2ccccc2)cs1 [NCGC00345106-03]
2,YES,O=C(O)C1=NC(C(=O)O)CC(/C=C/N2c3cc(O)c(OC4OC(CO)C(O)C(O)C4O)cc3CC2C(=O)O)=C1 (centres unmarked) [NCGC00346734-01]

row,Compound,CONFIRMATORY SCREEN Confirm?
1,O=C(Nc1nc(-c2ccccc2)cs1)c1ccncc1NS(=O)(=O)c1ccc2ccccc2c1.O=C(O)C(F)(F)F [NCGC00345031-01],YES

# Same assay, conditions: confirmatory screen, qHTS curve class; negative sign = inhibitory curve
row,CONFIRMATORY SCREEN Curve Class,Compound
1,-2.1,Cc1cc(F)ccc1S(=O)(=O)Nc1cnccc1C(=O)Nc1nc(-c2ccccc2)cs1 [NCGC00345106-03]
2,-2.2,O=C(O)C1=NC(C(=O)O)CC(/C=C/N2c3cc(O)c(OC4OC(CO)C(O)C(O)C4O)cc3CC2C(=O)O)=C1 (centres unmarked) [NCGC00346734-01]

row,Compound,CONFIRMATORY SCREEN Curve Class
1,O=C(Nc1nc(-c2ccccc2)cs1)c1ccncc1NS(=O)(=O)c1ccc2ccccc2c1.O=C(O)C(F)(F)F [NCGC00345031-01],-1.4

# Same assay, conditions: confirmatory screen; negative = inhibition
row,CONFIRMATORY SCREEN Efficacy (%),Compound
1,-123,Cc1cc(F)ccc1S(=O)(=O)Nc1cnccc1C(=O)Nc1nc(-c2ccccc2)cs1 [NCGC00345106-03]
2,-66,O=C(O)C1=NC(C(=O)O)CC(/C=C/N2c3cc(O)c(OC4OC(CO)C(O)C(O)C4O)cc3CC2C(=O)O)=C1 (centres unmarked) [NCGC00346734-01]

# Same assay, conditions: confirmatory screen; read-out: CONFIRMATORY SCREEN IC50
row,IC50 [µM],Compound
1,28.2,Cc1cc(F)ccc1S(=O)(=O)Nc1cnccc1C(=O)Nc1nc(-c2ccccc2)cs1 [NCGC00345106-03]
2,50.1,O=C(O)C1=NC(C(=O)O)CC(/C=C/N2c3cc(O)c(OC4OC(CO)C(O)C(O)C4O)cc3CC2C(=O)O)=C1 (centres unmarked) [NCGC00346734-01]

row,Compound,IC50 [µM]
1,O=C(Nc1nc(-c2ccccc2)cs1)c1ccncc1NS(=O)(=O)c1ccc2ccccc2c1.O=C(O)C(F)(F)F [NCGC00345031-01],20

# Same assay, conditions: qHTS FP screen hits, Table S2; negative = inhibition
row,Efficacy (%),Compound
1,-51,Cc1cc(F)ccc1S(=O)(=O)Nc1cnccc1C(=O)Nc1nc(-c2ccccc2)cs1 [NCGC00345106-03]

# Same assay, conditions: qHTS FP screen hits, Table S2; one class per curve where COUNT > 1; negative sign = inhibitory curve
row,Curve Class,Compound
1,-2.2,Cc1cc(F)ccc1S(=O)(=O)Nc1cnccc1C(=O)Nc1nc(-c2ccccc2)cs1 [NCGC00345106-03]

# Same assay, conditions: qHTS FP screen hits, Table S2; read-out: IC50
row,IC50 [µM],Compound
1,50.1,Cc1cc(F)ccc1S(=O)(=O)Nc1cnccc1C(=O)Nc1nc(-c2ccccc2)cs1 [NCGC00345106-03]

# Same assay, conditions: qHTS primary screen hits, Table S2; negative = inhibition
row,Compound,Efficacy (%)
1,O=C(Nc1nc(-c2ccccc2)cs1)c1ccncc1NS(=O)(=O)c1ccc2ccccc2c1.O=C(O)C(F)(F)F [NCGC00345031-01],-53
2,O=C(O)C1=NC(C(=O)O)CC(/C=C/N2c3cc(O)c(OC4OC(CO)C(O)C(O)C4O)cc3CC2C(=O)O)=C1 (centres unmarked) [NCGC00346734-01],-25

# Same assay, conditions: qHTS primary screen hits, Table S2; negative sign = inhibitory curve
row,Compound,Curve Class
1,O=C(Nc1nc(-c2ccccc2)cs1)c1ccncc1NS(=O)(=O)c1ccc2ccccc2c1.O=C(O)C(F)(F)F [NCGC00345031-01],-2.2
2,O=C(O)C1=NC(C(=O)O)CC(/C=C/N2c3cc(O)c(OC4OC(CO)C(O)C(O)C4O)cc3CC2C(=O)O)=C1 (centres unmarked) [NCGC00346734-01],-2.4

# Same assay, conditions: qHTS primary screen hits, Table S2; read-out: IC50
row,Compound,IC50 [µM]
1,O=C(Nc1nc(-c2ccccc2)cs1)c1ccncc1NS(=O)(=O)c1ccc2ccccc2c1.O=C(O)C(F)(F)F [NCGC00345031-01],39.8
2,O=C(O)C1=NC(C(=O)O)CC(/C=C/N2c3cc(O)c(OC4OC(CO)C(O)C(O)C4O)cc3CC2C(=O)O)=C1 (centres unmarked) [NCGC00346734-01],24.1

# Target: T1, GST-CIB1 : F-scrambled peptide
# Test: FP scrambled-peptide counter screen, 1536-well format
# Assay type: binding
# Settings: not given
row,Compound,COUNTERSCREEN Efficacy (%)
1,O=C(Nc1nc(-c2ccccc2)cs1)c1ccncc1NS(=O)(=O)c1ccc2ccccc2c1.O=C(O)C(F)(F)F [NCGC00345031-01],0

# Same assay, conditions: scrambled-peptide counterscreen
row,COUNTERSCREEN Efficacy (%),Compound
1,28,Cc1cc(F)ccc1S(=O)(=O)Nc1cnccc1C(=O)Nc1nc(-c2ccccc2)cs1 [NCGC00345106-03]
2,-18,O=C(O)C1=NC(C(=O)O)CC(/C=C/N2c3cc(O)c(OC4OC(CO)C(O)C(O)C4O)cc3CC2C(=O)O)=C1 (centres unmarked) [NCGC00346734-01]

# Same assay, conditions: scrambled-peptide counterscreen, YES/NO call
row,COUNTERSCREEN Confirm?,Compound
1,YES,Cc1cc(F)ccc1S(=O)(=O)Nc1cnccc1C(=O)Nc1nc(-c2ccccc2)cs1 [NCGC00345106-03]
2,YES,O=C(O)C1=NC(C(=O)O)CC(/C=C/N2c3cc(O)c(OC4OC(CO)C(O)C(O)C4O)cc3CC2C(=O)O)=C1 (centres unmarked) [NCGC00346734-01]

row,Compound,COUNTERSCREEN Confirm?
1,O=C(Nc1nc(-c2ccccc2)cs1)c1ccncc1NS(=O)(=O)c1ccc2ccccc2c1.O=C(O)C(F)(F)F [NCGC00345031-01],YES

# Same assay, conditions: scrambled-peptide counterscreen, qHTS curve class
row,COUNTERSCREEN Curve Class,Compound
1,4,Cc1cc(F)ccc1S(=O)(=O)Nc1cnccc1C(=O)Nc1nc(-c2ccccc2)cs1 [NCGC00345106-03]
2,4,O=C(O)C1=NC(C(=O)O)CC(/C=C/N2c3cc(O)c(OC4OC(CO)C(O)C(O)C4O)cc3CC2C(=O)O)=C1 (centres unmarked) [NCGC00346734-01]

row,Compound,COUNTERSCREEN Curve Class
1,O=C(Nc1nc(-c2ccccc2)cs1)c1ccncc1NS(=O)(=O)c1ccc2ccccc2c1.O=C(O)C(F)(F)F [NCGC00345031-01],3
